Laboratory results reported in patent US20230069722A1, “TUBULYSINS AND PROTEIN-TUBULYSIN CONJUGATES” (priority 2020, published 2023).
Read-outs that look alike come from different tables or passages of the source.

Test system: HCT15 cells
Assay: MDR cell based killing assay, HCT15 cells with or without Verapamil (CellTiter-Glo)
Parameters: species or system human
Details: for IC50: Homo sapiens
Method: To test the ability of the disclosed tubulysin payloads or prodrug payloads to kill human cell lines, an in vitro cytotoxicity assay can be performed. In vitro cytotoxicity of the disclosed payloads, as well as reference compounds, are evaluated using the CellTiter-Glo Assay Kit (Promega, Cat # G7573), in which the quantity of ATP present is used to determine the number of viable cells in culture. For the assay, C4-2, HEK293, or T47D cells are seeded at 4000 cells/well on Nunclon white 96-well plates in complete growth medium (DME high glucose:Ham's F12 at 4:1, 10% FBS, 100 units/ml Penicillin, 100 ug/ml streptomycin, 53 ug/ml glutatmine, 10 ug/ml insulin, 220 ng/ml biotin, 12.5 pg/ml T3, 12.5 ug/ml Adenine, 4 ug/ml transferrin for C42 cells; DME high glucose, 10% FBS, 100 units/ml Penicillin, 100 ug/ml streptomycin, 53 ug/ml glutatmine for HEK293; RPMI, 10% FBS, 100 units/ml Penicillin, 100 ug/ml streptomycin, 53 ug/ml glutatmine, 10 ug/ml insulin, 10 mM HEPEs, 200 nM Sodium Pyruvate for T47D cells) and grown overnight at 37° C. in 5% CO2. For cell viability curves, 1:3 serially diluted payloads are added to the cells at final concentrations ranging from 100 nM to 15 pM, including a no treatment control group, and are then incubated for 5 days. After the 5-day incubation, cells are incubated at room temperature with 100 μL of CellTiter-Glo reagents for 10 minutes. Relative luminescence units (RLU) can be determined on a Victor plate reader (PerkinElmer). The IC50 values are determined from a four-parameter logistic equation over a 10-point response curve (GraphPad Prism). All IC50 values are expressed in molar (M) concentration. The percent cell killing (% kill) at the maximum concentration tested is estimated from the following formula (100−% viable cells). Averages±standard deviation (SD) can be included where replicate experiments are performed.
In vitro cytotoxicity of the disclosed payloads as well as reference compounds are evaluated similarly as described above except using 1000 HCT15 cells, a colorectal carcinoma cell line, in growth medium (RPMI, 10% FBS, 100 units/ml Penicillin, 100 ug/ml streptomycin, 53 ug/ml glutatmine) with or without 5 ug/mL of Verapamil.
For each payload or prodrug payload, the HCT-15 IC50 in the absence of Verapamil is divided by the HCT-15 IC50 in the presence of Verapamil (HCT-15 IC50/HCT-15+Verapamil IC50). […] The reference compound, (MMAE), can have a ratio of 23.7. […]

[1] = HCT-15, read-out: HCT-15 with verapamil IC50

| Structure (SMILES) | IC50 (HCT-15, read-out: HCT-15 IC50) [nM] | IC50 [1] [nM] | HCT-15 with verapamil Ratio to Xa = H (IC50 ratio to parent payload with Xa = H, with verapamil) [x] | HCT-15 Ratio to Xa = H (IC50 ratio to parent payload with Xa = H, without verapamil) [x] |
| --- | --- | --- | --- | --- |
| CCCCCCN(C(=O)[C@@H](NC(=O)[C@H]1CCCCN1)[C@@H](C)CC)[C@H](C[C@@H](OCC)c1nc(C(=O)N[C@@H](Cc2ccc(N)c(F)c2)CC(C)(C)C(=O)O)cs1)C(C)C [Compound P16, (4S)-5-(4-amino-3-fluorophenyl)-4-({2-[(1R,3R)-1-ethoxy-3-[(2S,3S)—N-hexyl-3-methyl-2-[(2R)-piperidin-2-ylformamido]pentanamido]-4-methylpentyl]-1,3-thiazol-4-yl}formamido)-2,2-dimethylpentanoic Acid] | 1.96 | 0.18 | – | – |
| CCCCCCN(C(=O)[C@@H](NC(=O)[C@H]1CCCCN1C)[C@@H](C)CC)[C@H](C[C@@H](OC(C)=O)c1nc(C(=O)N[C@@H](Cc2ccc(F)cc2)CC(C)(C)C(=O)O)cs1)C(C)C [Compound P10, (4S)-4-({2-[(1R,3R)-1-(acetyloxy)-3-[(2S,3S)—N-hexyl-3-methyl-2-{[(2R)-1-methylpiperidin-2-yl]formamido}pentanamido]-4-methylpentyl]-1,3-thiazol-4-yl}formamido)-5-(4-fluorophenyl)-2,2-dimethylpentanoic Acid] | 0.24 | 0.09 | – | – |
| CCCCCCN(C(=O)[C@@H](NC(=O)[C@H]1CCCCN1C)[C@@H](C)CC)[C@H](C[C@@H](OC(C)=O)c1nc(C(=O)N[C@@H](Cc2ccc(NC(=O)CO)cc2)CC(C)(C)C(=O)O)cs1)C(C)C [Compound P29, (4S)-4-({2-[(1R,3R)-1-(acetyloxy)-3-[(2S,3S)—N-hexyl-3-methyl-2-{[(2R)-1-methylpiperidin-2-yl]formamido}pentanamido]-4-methylpentyl]-1,3-thiazol-4-yl}formamido)-5-[4-(2-hydroxyacetamido)phenyl]-2,2-dimethylpentanoic Acid] | 4.68 | 0.67 | 35 | 104 |
| CCCCCCN(C(=O)[C@@H](NC(=O)[C@H]1CCCCN1C)[C@@H](C)CC)[C@H](C[C@@H](OC(C)=O)c1nc(C(=O)N[C@@H](Cc2ccc(F)cc2)CC(C)(C)C(=O)NS(=O)(=O)c2ccc(N)cc2)cs1)C(C)C [Compound P47, (1R,3R)-1-(4-{[(2S)-4-[(4-aminobenzenesulfonyl)carbamoyl]-1-(4-fluorophenyl)-4,4-dimethylbutan-2-yl]carbamoyl}-1,3-thiazol-2-yl)-3-[(2S,3S)—N-hexyl-3-methyl-2-{[(2R)-1-methylpiperidin-2-yl]formamido}pentanamido]-4-methylpentyl Acetate] | 53.5 | – | – | – |
| CCCCCCN(C(=O)[C@@H](NC(=O)[C@H]1CCCCN1C)[C@@H](C)CC)[C@H](C[C@@H](OC(C)=O)c1nc(C(=O)NS(=O)(=O)c2ccc(N)cc2)cs1)C(C)C [Compound P43, (1R,3R)-1-{4-[(4-aminobenzenesulfonyl)carbamoyl]-1,3-thiazol-2-yl}-3-[(2S,3S)—N-hexyl-3-methyl-2-{[(2R)-1-methylpiperidin-2-yl]formamido}pentanamido]-4-methylpentyl Acetate] | 4.99 | 1.42 | – | – |
| CCCCCCN(C(=O)[C@@H](NC(=O)[C@H]1CCCCN1C)[C@@H](C)CC)[C@H](C[C@@H](OCC)c1nc(C(=O)N[C@@H](Cc2ccc(N)c(F)c2)CC(C)(C)C(=O)O)cs1)C(C)C [Compound P3, (4S)-5-(4-amino-3-fluorophenyl)-4-({2-[(1R,3R)-1-ethoxy-3-[(2S,3S)—N-hexyl-3-methyl-2-{[(2R)-1-methylpiperidin-2-yl]formamido}pentanamido]-4-methylpentyl]-1,3-thiazol-4-yl}formamido)-2,2-dimethylpentanoic Acid] | 0.07 | 0.01 | – | – |
| CCCCCCN(C(=O)[C@@H](NC(=O)[C@@]1(C)CCCN1)[C@@H](C)CC)[C@H](C[C@@H](OC(C)=O)c1nc(C(=O)N[C@@H](Cc2ccc(N)c(F)c2)CC(C)(C)C(=O)O)cs1)C(C)C [Compound P15, (4S)-4-({2-[(1R,3R)-1-(acetyloxy)-3-[(2S,3S)—N-hexyl-3-methyl-2-{[(2R)-2-methylpyrrolidin-2-yl]formamido}pentanamido]-4-methylpentyl]-1,3-thiazol-4-yl}formamido)-5-(4-amino-3-fluorophenyl)-2,2-dimethylpentanoic Acid] | 1.01 | 0.19 | – | – |
| CCCCCCN(C(=O)[C@@H](NC(=O)[C@H]1CCCCN1C)[C@@H](C)CC)[C@H](C[C@@H](OCC)c1nc(C(=O)N[C@@H](Cc2ccccc2)CC(C)(C)C(=O)NS(=O)(=O)Cc2ccc(N)cc2)cs1)C(C)C [Compound P48, (2S,3S)—N-[(1R,3R)-1-(4-{[(2S)-4-{[(4-aminophenyl)methanesulfonyl]carbamoyl}-4,4-dimethyl-1-phenylbutan-2-yl]carbamoyl}-1,3-thiazol-2-yl)-1-ethoxy-4-methylpentan-3-yl]-N-hexyl-3-methyl-2-{[(2R)-1-methylpiperidin-2-yl]formamido}pentanamide] | 65.8 | – | – | – |
| CCCCCCN(C(=O)[C@@H](NC(=O)[C@H]1C[C@H](C)CCN1)[C@@H](C)CC)[C@H](C[C@@H](OC(C)=O)c1nc(C(=O)N[C@@H](Cc2ccc(N)c(F)c2)CC(C)(C)C(=O)O)cs1)C(C)C [Compound P14, (4S)-4-({2-[(1R,3R)-1-(acetyloxy)-3-[(2S,3S)—N-hexyl-3-methyl-2-{[(2R,4R)-4-methylpiperidin-2-yl]formamido}pentanamido]-4-methylpentyl]-1,3-thiazol-4-yl}formamido)-5-(4-amino-3-fluorophenyl)-2,2-dimethylpentanoic Acid] | 1.21 | 0.1 | – | – |
| CCCCCCN(C(=O)[C@@H](NC(=O)[C@H]1C[C@H](C)CCN1)[C@@H](C)CC)[C@H](C[C@@H](OCC)c1nc(C(=O)N[C@@H](Cc2ccc(N)cc2)CC(C)(C)C(=O)O)cs1)C(C)C [Compound P21, (4S)-5-(4-aminophenyl)-4-({2-[(1R,3R)-1-ethoxy-3-[(2S,3S)—N-hexyl-3-methyl-2-{[(2R,4R)-4-methylpiperidin-2-yl]formamido}pentanamido]-4-methylpentyl]-1,3-thiazol-4-yl}formamido)-2,2-dimethylpentanoic Acid] | 11.1 | 1.47 | – | – |
| C#CCCCON(C(=O)[C@@H](NC(=O)[C@H]1CCCCN1C)[C@@H](C)CC)[C@H](C[C@@H](OC(C)=O)c1nc(C(=O)N[C@@H](Cc2ccc(O)cc2)CC(C)(C)C(=O)O)cs1)C(C)C [Compound P51, (4S)-4-({2-[(1R,3R)-1-(acetyloxy)-4-methyl-3-[(2S,3S)-3-methyl-2-{[(2R)-1-methylpiperidin-2-yl]formamido}-N-(pent-4-yn-1-yloxy)pentanamido]pentyl]-1,3-thiazol-4-yl}formamido)-5-(4-hydroxyphenyl)-2,2-dimethylpentanoic Acid] | 0.41 | 0.16 | – | – |
| CCCCCON(C(=O)[C@@H](NC(=O)[C@H]1CCCCN1)[C@@H](C)CC)[C@H](C[C@@H](OC(C)=O)c1nc(C(=O)N[C@@H](Cc2ccc(N)cc2)CC(C)(C)C(=O)O)cs1)C(C)C [Compound P36, (4S)-4-({2-[(1R,3R)-1-(acetyloxy)-4-methyl-3-[(2S,3S)-3-methyl-N-(pentyloxy)-2-[(2R)-piperidin-2-ylformamido]pentanamido]pentyl]-1,3-thiazol-4-yl}formamido)-5-(4-aminophenyl)-2,2-dimethylpentanoic Acid] | 12.2 | – | – | – |
| CCCCCCN(C(=O)[C@@H](NC(=O)[C@H]1CCCCN1C)[C@@H](C)CC)[C@H](C[C@@H](OCC)c1nc(C(=O)NS(=O)(=O)Cc2ccc(N)cc2)cs1)C(C)C [Compound P45, N-[(4-aminophenyl)methanesulfonyl]-2-[(1R,3R)-1-ethoxy-3-[(2S,3S)—N-hexyl-3-methyl-2-{[(2R)-1-methylpiperidin-2-yl]formamido}pentanamido]-4-methylpentyl]-1,3-thiazole-4-carboxamide] | 75.7 | – | – | – |
| C#CCCCON(C(=O)[C@@H](NC(=O)[C@H]1CCCCN1C)[C@@H](C)CC)[C@H](C[C@@H](O)c1nc(C(=O)N[C@@H](Cc2ccc(N)cc2)CC(C)(C)C(=O)O)cs1)C(C)C [Compound P33, (4S)-5-(4-aminophenyl)-4-({2-[(1R,3R)-1-hydroxy-4-methyl-3-[(2S,3S)-3-methyl-2-{[(2R)-1-methylpiperidin-2-yl]formamido}-N-(pent-4-yn-1-yloxy)pentanamido]pentyl]-1,3-thiazol-4-yl}formamido)-2,2-dimethylpentanoic Acid] | 81.7 | 28.1 | – | – |
